Values of other authors as cited in patent publication US20170296666A1, “Stable Pharmaceutical Composition Of Amorphous Ticagrelor” (Amneal Pharmaceuticals Company GmbH, priority 2016, published 2017).

Conditions: class IV = low solubility and low permeability

CCCSc1nc(N[C@@H]2C[C@H]2c2ccc(F)c(F)c2)c2nnn([C@@H]3C[C@H](OCCO)[C@@H](O)[C@H]3O)c2n1 [Ticagrelor, (1S,2S,3R,5S)-3-[7-{[(1/R,2S)-2-(3,4-difluorophenyl)cyclopropyl]amino}-5 (propylthio)-3H-[1,2,3]-triazolo[4,5-d]pyrimidin-3-yl]-5-(2-hydroxyethoxy) cyclopentane-1,2-diol]
Biopharmaceutics Classification System (BCS) class: class IV
